In ChEMBL document CHEMBL4825752, “1, 2-Dihexadecanoyl-sn-glycero-3-phosphoethanolamin (DPPE), doxorubicin and folic acid conjugated micelles for cancer management in tumor bearing BALB/c mice” (Bioorg Med Chem Lett, 2021):

How the values were obtained:
[1] = Toxicity in rat liver assessed as hepatocytes degeneration by histopathological analysis
[2] = Biodistribution in kidney of iv dosed tumor bearing BALB/c mouse; type: ADME, organism-based; conditions: in vivo
[3] = AUMC(0 to infinity) in single iv dosed BALB/c mouse by HPLC analysis; type: ADME, organism-based; conditions: in vivo
[4] = Toxicity in rat kidney assessed as glomerular necrosis by histopathological analysis; type: tissue-based; conditions: in vivo
[5] = Toxicity in rat heart assessed as haemorrhage by histopathological analysis; type: tissue-based; conditions: in vivo
[6] = Biodistribution in spleen of iv dosed tumor bearing BALB/c mouse; type: ADME, organism-based; conditions: in vivo
[7] = Toxicity in rat skeletal muscle assessed as infiltration of inflammatory cells by histopathological analysis; type: tissue-based, Skeletal muscle tissue
[8] = Half life in single iv dosed BALB/c mouse by HPLC analysis; type: ADME, organism-based; conditions: in vivo
[9] = Toxicity in tumor bearing BABL/c mouse assessed as median survival time at 5 mg/kg, iv (reference value: 7.5 day); type: organism-based; conditions: in vivo, 180 h
[10] = Mean residence time in single iv dosed BALB/c mouse by HPLC analysis; type: ADME, organism-based; conditions: in vivo
[11] = Toxicity in rat heart assessed as myocardial necrosis by histopathological analysis; type: tissue-based; conditions: in vivo
[12] = Toxicity in rat heart assessed as myocardial cell degeneration by histopathological analysis; type: tissue-based
[13] = Toxicity in rat kidney assessed as tubular degeneration by histopathological analysis; type: tissue-based; conditions: in vivo
[14] = Biodistribution in heart of iv dosed tumor bearing BALB/c mouse; type: ADME, organism-based; conditions: in vivo
[15] = AUC(0 to t) in single iv dosed BALB/c mouse by HPLC analysis; type: ADME, organism-based; conditions: in vivo
[16] = Toxicity in rat kidney assessed as epithelial degeneration by histopathological analysis; type: tissue-based; conditions: in vivo
[17] = Biodistribution in blood of single iv dosed tumor bearing BALB/c mouse; type: ADME, organism-based; conditions: in vivo
[18] = AUMC(0 to t) in single iv dosed BALB/c mouse by HPLC analysis; type: ADME, organism-based; conditions: in vivo
[19] = Biodistribution in liver of iv dosed tumor bearing BALB/c mouse; type: ADME, organism-based; conditions: in vivo
[20] = Toxicity in rat kidney assessed as congestion of glomeruli blood vessels by histopathological analysis; type: tissue-based; conditions: in vivo
[21] = Toxicity in rat kidney assessed as tubular necrosis by histopathological analysis; type: tissue-based; conditions: in vivo
[22] = Toxicity in rat skeletal muscle assessed as widening of endomysium by histopathological analysis; type: tissue-based, Skeletal muscle tissue; conditions: in vivo
[23] = Toxicity in rat liver assessed as microvesicular steatosis by histopathological analysis; type: tissue-based
[24] = AUC(0 to infinity) in single iv dosed BALB/c mouse by HPLC analysis; type: ADME, organism-based; parameters: time infinity, route intravenous; conditions: in vivo

With `COc1cccc2c1C(=O)c1c(O)c3c(c(O)c1C2=O)C[C@@](O)(C(=O)CO)C[C@@H]3O[C@H]1C[C@H](N)[C@H](O)[C@H](C)O1` [DOXORUBICIN] the Activity [1] was “Toxic”, the Drug uptake [2] was “Active” and the AUMC [3] was 30.25 ug/ml.hr^2. For the same compound, the Activity [4] was “Toxic”, the Activity [5] was “Toxic” and the Drug uptake [6] was “Active”. For the same compound, the Activity [7] was “Toxic”, the t1/2 [8] was 2.09 h and the Activity [9] was “Non-Toxic”. The MST [9] was 40 days, the MRT [10] was 3.1 h and the Activity [11] was “Toxic”. For the same compound, the Activity [12] was “Toxic”, the Activity [13] was “Toxic” and the Drug uptake [14] was “Active”. For the same compound, the AUC(0-t) [15] was 11400 ng·h/mL, the Activity [16] was “Toxic” and the Drug uptake [17] was “Active”. The AUMCt [18] was 29.45 ug/ml.hr^2, the Drug uptake [19] was “Active” and the Activity [20] was “Toxic”. The Activity [21] was “Toxic”, the Activity [22] was “Toxic” and the Activity [23] was “Toxic”. It also gave an AUC(0-inf) [24] of 10400 ng·h/mL.
